Reference: patent US20090068290A1, “BIFEPRUNOX DOSES FOR TREATING SCHIZOPHRENIA” (priority 2006, published 2009)

Experiments:
[1] = system: adult subjects with schizophrenia; assay: PANSS total score, Clinical Study Three (6-week, olanzapine-referenced); assay type: in vivo, human; details: for Change from Baseline in PANSS Total Score, Mean (SD) / Change from Baseline in PANSS Total Score, Median / PANSS Total Score, Trt Effect (difference between bifeprunox and placebo): LOCF, ITT; for PANSS Total Score, Trt Effect (difference between bifeprunox and placebo): ANCOVA
Description: There were four treatment arms in this study, approximately 144 subjects per arm. […] After completing the Single-Blind Placebo Lead-in Period of at least three days, bifeprunox-treated subjects were titrated from 0.25 mg up to 20 mg/day or 30 mg/day according to a standardized titration scheme over a seven- or eight-day period, respectively. When the assigned dose was reached, subjects were maintained at that dose for the remainder of the six week treatment period. […] Subjects were hospitalized (if not already inpatients) after eligibility for study entry was verified, starting from the Screening Visit until at least 10 days after Baseline. Subjects could be hospitalized longer than 10 days if considered medically necessary by the Investigator. Rating scale assessments for efficacy and abnormal movement disorders were done weekly except for Week 5. Safety assessments were performed at Screening, during treatment and at the end of the study. Subject satisfaction with study medication was assessed at Week 6. Samples of whole blood were obtained at Weeks 2, 4, and 6 for determination of bifeprunox in plasma.
Test Product, Dose and Mode of Administration: Bifeprunox tablets, total daily dose 20 mg or 30 mg (one 20 mg tablet and one 10 mg tablet) administered orally using a once daily dosing regimen.

[2] = system: adult subjects with schizophrenia; assay: Adverse events (TEAE, SAE, special interest, EPS-related TEAE), Clinical Study Two; assay type: in vivo, human
Description: Subjects who completed this study had the option to continue in the long-term. […] Risperidone-treated subjects were titrated from 2 mg to 6 mg daily over a three-day period and were subsequently maintained at 6 mg/day for the remainder of the treatment period. […] Blood samples were also obtained at Screening/Baseline, Week 3, and Week 6 for clinical laboratory assessments.

[3] = Bifeprunox 20 mg, Week 6/Endpoint
[4] = Bifeprunox 30 mg, Week 6/Endpoint

O=c1[nH]c2cccc(N3CCN(Cc4cccc(-c5ccccc5)c4)CC3)c2o1 [Bifeprunox, 7-[4-([1,1′-biphenyl]-3-ylmethyl)-1-piperazinyl]-2(3H)-benzoxazolone]
Change from Baseline in PANSS Total Score, Mean (SD) ([1]; Bifeprunox 20 mg, Week 1): −5.6 (11.7) | Change from Baseline in PANSS Total Score, Median ([1]; Bifeprunox 20 mg, Week 1): −5 | Change from Baseline in PANSS Total Score, Mean (SD) ([1]; Bifeprunox 20 mg, Week 2): −10.2 (14.8) | Change from Baseline in PANSS Total Score, Median ([1]; Bifeprunox 20 mg, Week 2): −10 | Change from Baseline in PANSS Total Score, Mean (SD) ([1]; Bifeprunox 20 mg, Week 3): −12.6 (16.9) | Change from Baseline in PANSS Total Score, Median ([1]; Bifeprunox 20 mg, Week 3): −13 | Change from Baseline in PANSS Total Score, Mean (SD) ([1]; Bifeprunox 20 mg, Week 4): −13.3 (18.7) | Change from Baseline in PANSS Total Score, Median ([1]; Bifeprunox 20 mg, Week 4): −13 | Change from Baseline in PANSS Total Score, Mean (SD) [1, 3]: −13.8 (19.9) | Change from Baseline in PANSS Total Score, Median [1, 3]: −14 | PANSS Total Score, Trt Effect (difference between bifeprunox and placebo) [1, 3]: −3.5 | Change from Baseline in PANSS Total Score, Median ([1]; Bifeprunox 30 mg, Week 1): −6 | Change from Baseline in PANSS Total Score, Mean (SD) ([1]; Bifeprunox 30 mg, Week 2): −8.5 (15.6) | Change from Baseline in PANSS Total Score, Median ([1]; Bifeprunox 30 mg, Week 2): −9 | Change from Baseline in PANSS Total Score, Mean (SD) ([1]; Bifeprunox 30 mg, Week 3): −11.1 (18.0) | Change from Baseline in PANSS Total Score, Median ([1]; Bifeprunox 30 mg, Week 3): −11 | Change from Baseline in PANSS Total Score, Mean (SD) ([1]; Bifeprunox 30 mg, Week 4): −12.0 (18.6) | Change from Baseline in PANSS Total Score, Median ([1]; Bifeprunox 30 mg, Week 4): −13 | Change from Baseline in PANSS Total Score, Mean (SD) [1, 4]: −13.1 (20.2) | Change from Baseline in PANSS Total Score, Median [1, 4]: −13 | PANSS Total Score, Trt Effect (difference between bifeprunox and placebo) [1, 4]: −2.2 | efficacy compared to placebo, primary and key secondary efficacy parameters ([1]; bifeprunox 20 mg and 30 mg, Endpoint): did not demonstrate efficacy as compared to the placebo group | AKATHISIA, % ([2]; BX 30 mg): (3%) | BALANCE DISORDER, % ([2]; BX 30 mg): (<1%) | COGWHEEL RIGIDITY, % ([2]; BX 30 mg): (<1%) | DISTURBANCE IN ATTENTION, % ([2]; BX 30 mg): (<1%) | DIZZINESS, % ([2]; BX 30 mg): (8%) | DYSARTHRIA, % ([2]; BX 30 mg): (<1%) | DYSGEUSIA, % ([2]; BX 30 mg): (<1%) | DYSKINESIA, % ([2]; BX 30 mg): (1%) | Dystonia, % ([2]; BX 30 mg): (2%) | EXTRAPYRAMIDAL DISORDER, % ([2]; BX 30 mg): (5%) | HEADACHE NOS, % ([2]; BX 30 mg): (12%) | MIGRAINE, % ([2]; BX 30 mg): 1 (<1%) | NERVOUS SYSTEM DISORDERS, % ([2]; BX 30 mg): (36%) | PARAESTHESIA, % ([2]; BX 30 mg): 1 (<1%) | PSYCHOMOTOR HYPERACTIVITY, % ([2]; BX 30 mg): 1 (<1%) | SEDATION, % ([2]; BX 30 mg): 5% | Syncope, % ([2]; BX 30 mg): 1 (<1%) | TARDIVE DYSKINESIA, % ([2]; BX 30 mg): < 1% | TREMOR, % ([2]; BX 30 mg): 6% | AKATHISIA, % ([2]; BX 40 mg): (7%) | Choreoathetosis, % ([2]; BX 40 mg): (<1%) | DIZZINESS, % ([2]; BX 40 mg): (14%) | DYSKINESIA, % ([2]; BX 40 mg): (3%) | Dystonia, % ([2]; BX 40 mg): (2%) | EXTRAPYRAMIDAL DISORDER, % ([2]; BX 40 mg): (5%) | HEADACHE NOS, % ([2]; BX 40 mg): (17%) | NERVOUS SYSTEM DISORDERS, % ([2]; BX 40 mg): (37%) | SEDATION, % ([2]; BX 40 mg): 3%
